Values quoted from earlier work as cited in patent publication US12350135B2, “Absorbent article with odor control composition” (The Procter & Gamble Company, priority 2021, dated 2025).
Where a name gives a salt, the structure may show the parent alone.

Settings: for water solubility: in water

water solubility	Compound	solubility in water (in words)
about 0.46%	O=[N+]([O-])C1(Br)COCOC1 [Bronidox L, 5-bromo-5-nitro-1,3-dioxane]	
about 0.8%	CC(C)(O)C(Cl)(Cl)Cl [chlorobutanol, 1,1,1,-Trichloro-2-methylpropan-2-ol]	
about 2.67%	OCCOc1ccccc1 [2-phenoxyethanol]	
about 70%	[H]/N=C(\N/C(=N/[H])NCCCCCCNC(=N)NC(=N)Nc1ccc(Cl)cc1)Nc1ccc(Cl)cc1 [chlorhexidine digluconate salt, 1,1′-hexamethylene bis(5-(p-chlorophenyl)biguanide), reference compound]	
about 4%	OCc1ccccc1 [benzyl alcohol]	
about 2%	OCCc1ccccc1 [2-phenylethanol]	
	ClC=CC[N+]12CN3CN(CN(C3)C1)C2.[Cl-] [Dowicil 200, 1-(3-Chlorallyl)-3,5,7-triaza-1-azoniaadamantane chloride]	freely soluble in water
about 1.8%	[H]/N=C(\N/C(=N/[H])NCCCCCCNC(=N)NC(=N)Nc1ccc(Cl)cc1)Nc1ccc(Cl)cc1 [chlorhexidine diacetate salt, 1,1′-hexamethylene bis(5-(p-chlorophenyl)biguanide), reference compound]	

Compound	water solubility	solubility in water (in words)
[Na+].[O-][n+]1ccccc1[S-] [sodium pyrithione]	about 50%	
CC1(C)C(=O)N(CO)C(=O)N1CO [DMDM hydantoin, 1,3-bis(hydroxymethyl)-5,5-dimethyI-2,4-imidazolidinedione]	more than 50%	
